# Results taken from PMC4405350, “From Broad-Spectrum Biocides to Quorum Sensing Disruptors and Mussel Repellents: Antifouling Profile of Alkyl Triphenylphosphonium Salts” (PLoS ONE, 2015).
# pEC50, pIC50: −log10 of the molar value.
# Key:
# [1] = test system: V. harveyi BB120 (wild type strain); test: Quorum sensing bioassay: bioluminescence; format: cell-based; conditions: Vibrio harveyi, 18 h, read-out: IC50 Luminescence WT
# Procedure: (§1) V. harveyi BB120 (wild type strain), BB170 (luxN::Tn5kan), BB886 (luxPQ::Tn5kan) and BB721 (luxO::Tn5lacZ) were acquired from ATCC. To screen the ability of the compounds to interfere with QS, the test products were serially diluted in 100 μl of Autoinducer Bioassay (AB) medium using white, clear-bottom 96-well microtiter plates (Costar 3610) as assay platform. Aerobic bacterial cultures were incubated overnight (30 °C) and diluted 1:50. One-hundred μl of the diluted cultures were dispensed inside each well in the microtiter plate. That gave a starting cell density of 1–2 x 10^7 cfu ml^-1. The plates were covered with a sterile sealing film. Luminescence and OD600 were monitored every 15 min over 18 h with a multimode plate reader (Perkin-Elmer EnSpire) in order to correlate the effects of the products on both the growth and bioluminescence kinetics.
# (§2) Compounds 3–5 and 7 were evaluated in V. harveyi WT and three mutant strains: BB886 (luxPQ::Tn5Kan), unable to detect AI-2; BB170 (luxN::Tn5Kan), unable to detect HAI-1; and BB721 (luxO::Tn5lacZ), a LuxO null mutant that produces maximal luminescence per cell constitutively. In order to take into account the cumulative effects of the compounds, bioluminescence and growth were measured simultaneously every 15 min over 18 h (Fig 7). Accordingly, IC50 values for bacterial luminescence and growth were obtained by integration of the areas under the curves for each tested dose (Table 3). For clarity of the graphs, error bars has been omitted in Fig 7 and only the mean curves are shown.
# [2] = test system: V. harveyi BB170 (luxN::Tn5kan); test: Quorum sensing bioassay: bioluminescence; format: cell-based; conditions: Vibrio harveyi, 18 h, read-out: IC50 Luminescence BB170
# Procedure: as §1, §2
# [3] = test system: V. harveyi BB721 (luxO::Tn5lacZ); test: Quorum sensing bioassay: bioluminescence; format: cell-based; conditions: Vibrio harveyi, 18 h, read-out: IC50 Luminescence BB721
# Procedure: as §1, §2
# [4] = test system: V. harveyi BB886 (luxPQ::Tn5kan); test: Quorum sensing bioassay: bioluminescence; format: cell-based; conditions: Vibrio harveyi, 18 h, read-out: IC50 Luminescence BB886
# Procedure: as §1, §2
# [5] = test system: V. harveyi WT and reporter strains; test: V. harveyi growth inhibition (OD600); format: cell-based; conditions: Vibrio harveyi, 18 h, read-out: IC50 Growth
# Procedure: as §1, §2
# [6] = test system: Mytilus galloprovincialis; test: Mussel foot retraction assay; format: in vivo; conditions: for Mussels showing foot retraction: 200 μM, highest test concentration; for pEC50: Mytilus galloprovincialis, dripped on the foot, read-out: Concentration required to cause foot repulsion in 50% of mussels
# Procedure: The mussel Mytilus galloprovincialis was used as target organism. Individuals of 4.0–4.5 cm shell length were collected at intertidal rocky shore of the outer Ría de Vigo (NW Spain). Animals were kept in running seawater aquarium tanks with open-flow design for few days and fed daily by pulses with a mixture of the microalgae (Tahitian Isochrysis aff. galbana) and sediment from the seafloor below the mussel rafts.
# Mussel foot retracting assay was conducted following the method reported by Hayashi and Miki. Briefly, subsamples of individuals from the maintenance tanks were transferred to containers filled with 1-μm FSW. After 30 min, the posterior adductor muscle (PAM) was cut to open both animal´s valves as shown in S1A Fig, and byssus filaments were removed from their insertion with the soft tissues. Animals were disposed individually on flexible innocuous plasticine basis as a holder still for 15 min in FSW. The latter disposition avoided animal´s manipulation before and after each test solution was dripped directly on the foot of immobilized animals. FSW was removed and animals exposed their internal cavities in dry conditions for the dripping actions but maintaining a humidity layer over soft tissues.
# Initially two different controls (negative and positive) were considered. As negative control, 2.5 μl of DMSO in 0.2-μm FSW was used. […] After the negative control test, the animals were disposed back in 1-μm FSW for 15 min. With regard to the positive control, 1000 ppm of CuSO4 was used. For the latter case, only animals that did react to such positive control were used. After this second control, animals were disposed back in 1-μm FSW, this time for 25 min in order to remove completely any rest of copper. All animals considered for the experiment have accomplished the two controls satisfactorily.
# Different concentrations (6.25, 12.5, 25, 50, 100 and 200 μM) of two test compounds, 3 and 16 were used. Stocks of 40 mM for the two compounds under investigation were prepared in DMSO. Posterior dilution actions to get the distinct concentrations desired were prepared with 0.2-μm FSW. Concentrations were tested in ascending order from 6.25 to 200 μM. Animals were kept in 0.2-μm FSW for 15 min at each time interval between sampling with the aim to wash the internal soft tissues. After each removal of seawater, animals were ready to use again.
# Eight series of ten animals each were considered for retracting muscle foot analysis and each test compound. Each potential foot-reacting substance was individually dripped on the foot of the mussels (S1B Fig) and the animal’s reactions were noted. […]
# in vivo = conditions: in vivo
# Procedure: All the biological assays were run by triplicate. […] For the active products, serial dilutions were performed to calculate the half-maximal inhibitory concentrations (IC50) or the minimal inhibitory concentrations (MIC). Unless otherwise stated, the test concentrations were 100, 50, 25, 10, 5, 2.5, 1, 0.5 and 0.1 μM. Dose-response curves were adjusted with GraphPad Prism 5 software using a four-parameter non-linear regression model.
# Artemia salina cysts (INVE Aquaculture, Ghent, Belgium) were hatched in brackish water (30 ‰ salinity) at 28 °C with aeration and under constant light. Newly hatched instar I nauplii were harvested for bioassays. Tests were conducted in 96-well plates (15±5 nauplii per well, test volume = 200 μl). The number of dead and alive individuals was recorded after 24 h of incubation at 28 °C and 24-hour photoperiod.
SMILES,pIC50 [1],pIC50 [2],pIC50 [3],pIC50 [4],pIC50 [5],Mussels showing foot retraction [6],pEC50 [6],LC50 at 24 h (in vivo) [µM]
C/C=C/C[P+](c1ccccc1)(c1ccccc1)c1ccccc1 [Compound 3],3.53,3.60,3.46,3.58,< 3.30,94–95%,4.33,–
BrCCCC[P+](c1ccccc1)(c1ccccc1)c1ccccc1 [Compound 4],< 3.30,3.65,< 3.30,3.51,< 3.30,–,–,–
CCCCN[P+](c1ccccc1)(c1ccccc1)c1ccccc1 [Compound 5],< 3.30,< 3.30,< 3.30,< 3.30,< 3.30,–,–,–
CCCCC[P+](c1ccccc1)(c1ccccc1)c1ccccc1 [Compound 7],3.69,3.89,3.56,3.75,< 3.30,–,–,–
CCCCCCCCCCCCCCCC[P+](c1ccccc1)(c1ccccc1)c1ccccc1 [Compound 16],–,–,–,–,–,94–95%,4.47,–
CCCCCCCCCCCCCCCCCC[P+](c1ccccc1)(c1ccccc1)c1ccccc1 [Compound 17],–,–,–,–,–,–,–,< 0.5
CCCCCCCCCCCCCCCCCCC[P+](c1ccccc1)(c1ccccc1)c1ccccc1 [Compound 18],–,–,–,–,–,–,–,< 0.5
